Legend:
[1] = system: Herpes simplex virus type 1 (HSV-1); test: Antiviral activity against HSV-1, viral plaque reduction (ED50); type: cell-based; settings: FIG. 13; deoxyguanosine with MMdCyd
Method: Infected cells were treated with different concentrations of MMdCyd and the concentration required to reduce viral plaque formation by 50%, i.e. ED50, was determined.
^a ED50 : Concentration required to reduce viral plaque formatio
Vero cells were infected with the KOS strain of HSV-1. The compound of compounds indicated in Table 2, below, and are shown graphically in FIGS. 1, (H4 dUrd) and 2 (H4 Urd).
^a Antiviral assays were carried out using Vero cells. All compounds
were added immediately after virus infection.
The antiviral activity of MMdCyd in the presence of H4 dUrd was determined against several strains of HSV-1 and HSV-2.
Vero cells were infected with HSV-1, strain 76 and treated with MMdCyd at different times post virus infection.
The antiviral activity, ^a cyctotoxicity* and antiviral indices of MMdCyd in the presence of H4 dUrd, dGuo and H4 dUrd+dGuo were determined.
^a Antiviral assays were carried out using Vero cells. Compounds were
added immediately after virus infection. Virus HSV1, strains KOS and 76;
KOS, virus input = 50 PFU

[2] = system: Deoxynucleoside Triphosphate (dNTP) Pools in Uninfected Vero Cells; test: Deoxynucleoside triphosphate (dNTP) pools in uninfected (mock-infected) Vero cells; type: cell-based; settings: Table 10, uninfected
Method: Vero cells were treated with MMdCyd, H4 dUrd and MMdCyd+H4 dUrd. The cells were then assayed for the presence of deoxynucleoside triphosphates. Untreated Vero cells were also assayed for the presence of deoxynucleoside triphosphates, to provide a control.
^a Cells were mock infected for one hour. Different treatments were
^b Values are means of at least two assays of triplicate cell
(§1) Vero cells and HSV-infected Vero cells were treated with dGUO and dGUO and H4 dUrd. The cells were then assayed for the presence of deoxynucleoside triphosphates. Untreated Vero cells were also assayed for the presence of deoxynucleoside triphophate to provide a control.
Vero cells were treated with N-methyl-MMdCyd. The cells were then assayed for dNTP pools.

[3] = system: Deoxynucleoside Triphosphate (dNTP) Pools in Vero Cells Infected with Herpes Simplex Virus Type 1; test: Deoxynucleoside triphosphate (dNTP) pools in HSV-1 infected Vero cells; type: cell-based; settings: Table 10, HSV-infected
Method: Example 9 was repeated, except that the Vero cells subjected to the treatment had all been infected with HSV-1 KOS strain prior to the treatment.
^a Cells were infected with 10 PFU/cell of HSV1 KOS strain for one
hour. Treatments were given for seven hours.
^a Cells were infected with 10 PFU/cell of HSV1, KOS strain after
^b H4 dUrd in MEM was added immediately after adsorption and
^c H4 dUrd in MEM was added immediately after adsorption and
as §1
^c Cells were infected with 10 PFU/cell of HSV1 strain KOS for one

[4] = system: Herpes simplex virus type 1 (HSV-1); test: Antiviral activity against HSV-1, viral plaque reduction (ED50); type: cell-based; settings: FIG. 13; HSV-1 KOS and 76, Vero, 20 PFU
[5] = Survival and viability of Vero cells; settings: monkey, vero cells
Method: (§2) The survival and viability of Vero cells grown in the presence of 2'-deoxyguanosine, H4 dUrd and deoxyguanosine+H4 dUrd was determined.

[6] = system: Vero cells; test: Survival and viability of Vero cells; settings: up to 250 μM, rapidly dividing Vero cells
Method: as §2

Nc1nc2c(ncn2[C@H]2C[C@H](O)[C@@H](CO)O2)c(=O)[nH]1 [dGuo, 2'-deoxyguanosine]
concentration giving maximal increase in antiherpes activity of MMdCyd [1]: 100 µM
dATP pool ([2]; dGUO 25 μM): 18 .rho.moles/10^6 cells
dCTP pool ([2]; dGUO 25 μM): 13 .rho.moles/10^6 cells
dGTP pool ([2]; dGUO 25 μM): 42 .rho.moles/10^6 cells
dTTP pool ([2]; dGUO 25 μM): 17 .rho.moles/10^6 cells
dATP pool ([2]; dGUO 50 μM): 19 .rho.moles/10^6 cells
dCTP pool ([2]; dGUO 50 μM): 9 .rho.moles/10^6 cells
dGTP pool ([2]; dGUO 50 μM): 88 .rho.moles/10^6 cells
dTTP pool ([2]; dGUO 50 μM): 10 .rho.moles/10^6 cells
dATP pool ([2]; dGUO 100 μM): 19 .rho.moles/10^6 cells
dCTP pool ([2]; dGUO 100 μM): 11 .rho.moles/10^6 cells
dGTP pool ([2]; dGUO 100 μM): 76 .rho.moles/10^6 cells
dTTP pool ([2]; dGUO 100 μM): 13 .rho.moles/10^6 cells
dATP pool ([2]; dGUO 250 μM): 29 .rho.moles/10^6 cells
dCTP pool ([2]; dGUO 250 μM): 8 .rho.moles/10^6 cells
dGTP pool ([2]; dGUO 250 μM): 102 .rho.moles/10^6 cells
dTTP pool ([2]; dGUO 250 μM): 13 .rho.moles/10^6 cells
dATP pool ([2]; dGUO 500 μM): 19 .rho.moles/10^6 cells
dCTP pool ([2]; dGUO 500 μM): 7 .rho.moles/10^6 cells
dGTP pool ([2]; dGUO 500 μM): 146 .rho.moles/10^6 cells
dTTP pool ([2]; dGUO 500 μM): 6 .rho.moles/10^6 cells
dATP pool ([3]; dGUO 25 μM): 12 .rho.moles/10^6 cells
dCTP pool ([3]; dGUO 25 μM): 23 .rho.moles/10^6 cells
dGTP pool ([3]; dGUO 25 μM): 290 .rho.moles/10^6 cells
dTTP pool ([3]; dGUO 25 μM): 110 .rho.moles/10^6 cells
dATP pool ([3]; dGUO 50 μM): 12 .rho.moles/10^6 cells
dCTP pool ([3]; dGUO 50 μM): 33 .rho.moles/10^6 cells
dGTP pool ([3]; dGUO 50 μM): 373 .rho.moles/10^6 cells
dTTP pool ([3]; dGUO 50 μM): 118 .rho.moles/10^6 cells
dATP pool ([3]; dGUO 100 μM): 12 .rho.moles/10^6 cells
dCTP pool ([3]; dGUO 100 μM): 64 .rho.moles/10^6 cells
dGTP pool ([3]; dGUO 100 μM): 600 .rho.moles/10^6 cells
dTTP pool ([3]; dGUO 100 μM): 214 .rho.moles/10^6 cells
dATP pool ([3]; dGUO 250 μM): 14 .rho.moles/10^6 cells
dCTP pool ([3]; dGUO 250 μM): 78 .rho.moles/10^6 cells
dGTP pool ([3]; dGUO 250 μM): 558 .rho.moles/10^6 cells
dTTP pool ([3]; dGUO 250 μM): 233 .rho.moles/10^6 cells
dATP pool ([3]; dGUO 500 μM): 25 .rho.moles/10^6 cells
dCTP pool ([3]; dGUO 500 μM): 60 .rho.moles/10^6 cells
dGTP pool ([3]; dGUO 500 μM): 738 .rho.moles/10^6 cells
dTTP pool ([3]; dGUO 500 μM): 247 .rho.moles/10^6 cells
effect on antiviral activity of MMdCyd [4]: markedly potentiated
viability at 25 µM [5]: 100%
viability at 50 µM [5]: 100%
viability at 100 µM [5]: 100%
viability at 250 µM [5]: 100%
viability at 500 µM [5]: 88%
viability at 1000 µM [5]: 63%
cytotoxicity [6]: devoid of cytotoxicity

From patent publication US4990499A, “Anti-herpes simplex virus activity of 5-alkoxymethyl-2'-deoxycytidimes and their 5-monophosphates” (priority 1989, dated 1991)
